Data published in PMC10205807, “Cross-species comparison in nonclinical pharmacokinetics of lenvatinib by a simple HPLC with ultraviolet detection” (Scientific Reports, 2023).

Tests used:
[1] = PK study in dogs (intravenous and oral); format: in vivo
Procedure: Male beagle dogs purchased from Marshall Farm USA Inc. (NY, USA) were used for the PK study. Dogs were 16 months old when the PK study was conducted. The PK study was performed in a cross-over design with 8 days interval between the doses. Dogs were fasted a day before the PK study and feeding was resumed 4 h postdose. Dosing solution of lenvatinib used in the dog PK study was the same as that in the rodent PK studies. Lenvatinib was intravenously administered at the dose of 3 mg/kg via cephalic vein. Oral administration of lenvatinib was conducted at 3 mg/kg by using a tube with a disposable syringe, and then the dosing tube was given ca. 30 mL of water to flush the remaining dosing solution in the tube. The number of dogs at each dose was four. Approximately 0.5 mL of blood samples were serially obtained from the cephalic vein using a heparinized syringe at pre-dose, and at 5, 15 and 30 min, and 1, 2, 4, 6, 8, 12 and 24 h post-dose. Plasma sample preparation and sample storage were the same as those in the rodent PK studies. PK parameters of lenvatinib were estimated by model independent analysis using a WinNonlin program (Version 4.1, Pharsight Corporation, Mountain View, CA). The time to reach the maximum plasma concentration (Tmax) and the maximum plasma concentration (Cmax) values were obtained directly from the plasma concentration data. Terminal half-life (T1/2) was calculated by ln2/ke, where ke is the slope of the regression line that fits the portion of the terminal phase (at least three time points) in the log-linear concentration–time curve. AUC0–t and AUMC0–t, the area under the concentration–time curves and the area under the first moment curve, from time = zero to time = t, respectively, were calculated using the lenvatinib concentrations in plasma by the linear/log trapezoidal method. AUC0–inf was calculated by AUC0–t + Ct/ke, and AUMC0–inf was AUMC0–t + Ct × t/ke + Ct/(ke)^2, where Ct is the last measurable concentration at time = t. The plasma concentration at time zero for the intravenous dose was extrapolated, while zero was used for the oral doses. Mean residence time (MRT), total plasma clearance (CLtot) and the volume of distribution at steady state (Vdss) were calculated by AUMC0–inf/AUC0–inf, Dose/AUC0–inf and CLtot × MRT, respectively. Oral bioavailability (F) was estimated by comparing dose-normalized AUC0–inf after oral (AUC0–inf.po) and intravenous (AUC0–inf.iv) administration as follows: F (%) = (AUC0–inf.po/AUC0–inf.iv) × 100.

plasma protein = test: in vitro plasma protein binding, mice; format: in vitro ADME; settings: mouse
[2] = PK study in mice (intravenous and oral); format: in vivo
Procedure: Female BALB/cAnNCrj-nu/nu mice were purchased from Charles River Laboratories (Kanagawa, Japan) and were acclimatized for 9 days prior to use in the PK study. At the dosing day, 7-week-old mice were used. E7080 was dissolved in 5% glucose injection to make a 0.3 mg/mL solution for intravenous administration and dissolved in water to make 0.3, 1, and 3 mg/mL solutions for oral administrations. Lenvatinib was intravenously administered at the dose of 3 mg/kg via the tail vein using a disposable syringe and oral administration was performed by gastric gavage at the doses of 3, 10, and 30 mg/kg at the dosing volume of 10 mL/kg (n = 3/time point/dose). Whole blood samples were drawn from the vena cava using heparinized syringes at 5, 15, and 30 min, and 1, 2, 4, 6, 8, 12, and 24 h postdose. Plasma samples were obtained by centrifugation and aliquots of plasma were transferred to a tube and stored below − 15 °C until assayed.
PK parameters of lenvatinib were estimated by model independent analysis using a WinNonlin program (Version 4.1, Pharsight Corporation, Mountain View, CA). The time to reach the maximum plasma concentration (Tmax) and the maximum plasma concentration (Cmax) values were obtained directly from the plasma concentration data. Terminal half-life (T1/2) was calculated by ln2/ke, where ke is the slope of the regression line that fits the portion of the terminal phase (at least three time points) in the log-linear concentration–time curve. AUC0–t and AUMC0–t, the area under the concentration–time curves and the area under the first moment curve, from time = zero to time = t, respectively, were calculated using the lenvatinib concentrations in plasma by the linear/log trapezoidal method. AUC0–inf was calculated by AUC0–t + Ct/ke, and AUMC0–inf was AUMC0–t + Ct × t/ke + Ct/(ke)^2, where Ct is the last measurable concentration at time = t. The plasma concentration at time zero for the intravenous dose was extrapolated, while zero was used for the oral doses. Mean residence time (MRT), total plasma clearance (CLtot) and the volume of distribution at steady state (Vdss) were calculated by AUMC0–inf/AUC0–inf, Dose/AUC0–inf and CLtot × MRT, respectively. Oral bioavailability (F) was estimated by comparing dose-normalized AUC0–inf after oral (AUC0–inf.po) and intravenous (AUC0–inf.iv) administration as follows: F (%) = (AUC0–inf.po/AUC0–inf.iv) × 100.

[3] = male, beagle, dog, plasma, intravenous 3 mg/kg
[4] = male, beagle, dog, plasma, oral 3 mg/kg
[5] = female, BALB/cAnNCrj-nu/nu, mouse, plasma, intravenous 3 mg/kg
[6] = female, BALB/cAnNCrj-nu/nu, mouse, plasma, oral 3 mg/kg
[7] = female, BALB/cAnNCrj-nu/nu, mouse, plasma, oral 10 mg/kg
[8] = female, BALB/cAnNCrj-nu/nu, mouse, plasma, oral 30 mg/kg

CLint (hepatic intrinsic clearance) ([1]; estimated from oral PK, Fa and Fg assumed unity, BW 10 kg): 61,500 mL/h | AUC(0-inf) [1, 3]: 8420 ± 927 ng·h/mL | MRT [1, 3]: 4.34 ± 0.36 h | half-life [1, 3]: 5.27 ± 0.83 h | C0 ([1]; male, beagle, dog, plasma, intravenous 3 mg/kg, extrapolated): 2440 ± 303 ng/mL | clearance ([1]; male, beagle, dog, plasma, intravenous 3 mg/kg, read-out: CLtot (converted)): 6.13 mL/min/kg | Vd ([1]; male, beagle, dog, plasma, intravenous 3 mg/kg, read-out: Vdss): 1.61 ± 0.249 L/kg | AUC(0-inf) [1, 4]: 5480 ± 1370 ng·h/mL | Cmax [1, 4]: 1270 ± 302 ng/mL | MRT [1, 4]: 4.81 ± 0.25 h | half-life [1, 4]: 4.76 ± 0.94 h | bioavailability ([1]; male, beagle, dog, plasma, oral 3 mg/kg vs intravenous 3 mg/kg, read-out: F (oral bioavailability)): 70.4 ± 23.1% | Tmax ([1]; male, beagle, dog, plasma, oral 3 mg/kg, median (range)): 2 h | fraction unbound (plasma protein; plasma, mice, 0.3–30 μg/mL, read-out: average fp (unbound fraction in plasma)): 0.033 | fraction unbound at 0.3 μg/mL (plasma protein; mice plasma, 0.3 μg/mL): 0.031 | CLint (hepatic intrinsic clearance) ([2]; estimated from oral PK, Fa and Fg assumed unity, BW 0.02 kg): 325 mL/h | AUC(0-inf) [2, 5]: 8690 ng·h/mL | MRT [2, 5]: 2.07 h | C0 ([2]; female, BALB/cAnNCrj-nu/nu, mouse, plasma, intravenous 3 mg/kg, extrapolated): 8290 ng/mL | clearance ([2]; female, BALB/cAnNCrj-nu/nu, mouse, plasma, intravenous 3 mg/kg, read-out: CLtot (converted)): 5.75 mL/min/kg | Vd ([2]; female, BALB/cAnNCrj-nu/nu, mouse, plasma, intravenous 3 mg/kg, read-out: Vdss): 0.714 L/kg | half-life ([2]; female, BALB/cAnNCrj-nu/nu, mouse, plasma, iv, 3 mg/kg, intravenous 3 mg/kg): 2.05 h | AUC(0-inf) [2, 6]: 5600 ng·h/mL | Cmax [2, 6]: 1970 ng/mL | MRT [2, 6]: 3.28 h | Tmax [2, 6]: 0.5 h | bioavailability ([2]; female, BALB/cAnNCrj-nu/nu, mouse, plasma, oral 3 mg/kg vs intravenous 3 mg/kg, read-out: F (oral bioavailability)): 64.4% | AUC(0-inf) [2, 7]: 27700 ng·h/mL | Cmax [2, 7]: 10500 ng/mL | MRT [2, 7]: 3.01 h | Tmax [2, 7]: 0.5 h | AUC(0-inf) [2, 8]: 118000 ng·h/mL | Cmax [2, 8]: 31300 ng/mL | MRT [2, 8]: 3.29 h | Tmax [2, 8]: 1 h | half-life ([2]; female, BALB/cAnNCrj-nu/nu, mouse, plasma, po, 3 mg/kg, oral 3 mg/kg): 2.09 h | half-life ([2]; female, BALB/cAnNCrj-nu/nu, mouse, plasma, po, 10 mg/kg, oral 10 mg/kg): 1.74 h | half-life ([2]; female, BALB/cAnNCrj-nu/nu, mouse, plasma, po, 30 mg/kg, across 3, 10, and 30 mg/kg): 1.74 to 2.09 h | half-life ([2]; female, BALB/cAnNCrj-nu/nu, mouse, plasma, po, 30 mg/kg, oral 30 mg/kg): 1.85 h
Structure (SMILES): COc1cc2nccc(Oc3ccc(NC(=O)NC4CC4)c(Cl)c3)c2cc1C(N)=O [lenvatinib, Lenvatinib]
